The IC50 is the concentration that gives 50% inhibition. A lower IC50 goes with greater potency in that assay.

In US20230340011A1 (Asteroid Therapeutics, priority 2022, published 2023) one finds IC50 and EC50 data, which are given here for 17 compounds.

One experiment addresses SREBP-2 (Homo sapiens (Human), UniProt Q12772). The experiment is described as follows: In vitro assay SREBP-2: PathHunter U2OS SREBP-2 Nuclear Translocation Cell Line, U18666A-stimulated. The experiment is classed as cell-based. Conditions: PathHunter U2OS SREBP-2 nuclear translocation cells, U18666A 10 μM, overnight (16 hours).
The target in another experiment is LXRβ (Homo sapiens (Human), UniProt P55055). The experiment is described as follows: In vitro assay LXRβ: PathHunter NHR CHO cells, LXRβ / Steroid Receptor Co-activator Peptide enzyme fragment complementation. The experiment is classed as cell-based. The conditions noted are these: PathHunter NHR CHO cells, full-length human LXRβ and SRCP, chemiluminescent signal; read-out: LXRβ PPI. A digest of the protocol: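 Co-activator recruitment measured by chemiluminescence after signal generation. The CHO line carries full-length human LXRβ tagged with ProLink and an SRCP–enzyme acceptor fusion in the nucleus; cells sat overnight at 37° C before testing, in charcoal-dextran filtered serum medium with 1% final vehicle.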
Chain of LXRβ (P55055 whole entry, the tested form may be a part): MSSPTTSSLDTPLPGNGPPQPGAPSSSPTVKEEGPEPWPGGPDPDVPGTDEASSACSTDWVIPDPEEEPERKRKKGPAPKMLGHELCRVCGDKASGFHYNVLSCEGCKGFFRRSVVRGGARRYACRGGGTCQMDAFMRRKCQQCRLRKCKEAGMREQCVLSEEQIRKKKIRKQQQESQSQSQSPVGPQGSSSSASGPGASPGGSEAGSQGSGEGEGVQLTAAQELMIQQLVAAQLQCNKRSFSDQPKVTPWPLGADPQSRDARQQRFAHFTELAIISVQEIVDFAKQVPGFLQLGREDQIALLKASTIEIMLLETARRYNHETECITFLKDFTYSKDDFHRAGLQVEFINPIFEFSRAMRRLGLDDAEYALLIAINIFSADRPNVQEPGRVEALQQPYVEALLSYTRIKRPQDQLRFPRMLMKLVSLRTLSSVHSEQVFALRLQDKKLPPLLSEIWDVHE

For `C[C@H](CCC(=O)N1CCC(S(=O)(=O)N(C)C)CC1)[C@H]1CC[C@H]2[C@@H]3CC=C4C[C@@H](O)CC[C@]4(C)[C@H]3CC[C@]12C` [Example 413, 1-((R)-4-((3S,8S,9S,10R,13R,14S,17R)-3-hydroxy-10,13-dimethyl-2,3,4,7,8,9,10,11,12,13,14,15,16,17-tetradecahydro-1H-cyclopenta[a]phenanthren-17-yl)pentanoyl)-N,N-dimethylpiperidine-4-sulfonamide], the concentration for half-maximal inhibition (IC50) against SREBP-2 fell in the range of 250 to 1000 nM. The EC50 at LXRβ was above 10000 nM.

`C[C@H](CCC(=O)N1CCC(NS(C)(=O)=O)CC1)[C@H]1CC[C@H]2[C@@H]3CC=C4C[C@@H](O)CC[C@]4(C)[C@H]3CC[C@]12C` [Example 414, N-(1-((R)-4-((3S,8S,9S,10R,13R,14S,17R)-3-hydroxy-10,13-dimethyl-2,3,4,7,8,9,10,11,12,13,14,15,16,17-tetradecahydro-1H-cyclopenta[a]phenanthren-17-yl)pentanoyl)piperidin-4-yl)methanesulfonamide] came in with an IC50 at SREBP-2 of 250 to 1000 nM. Also, at LXRβ, the EC50 is above 10000 nM.

Compound `C[C@H](CCC(=O)N1CCC(N(C)C(=O)c2ccncc2)CC1)[C@H]1CC[C@H]2[C@@H]3CC=C4C[C@@H](O)CC[C@]4(C)[C@H]3CC[C@]12C` [Example 416, N-(1-((R)-4-((3S,8S,9S,10R,13R,14S,17R)-3-hydroxy-10,13-dimethyl-2,3,4,7,8,9,10,11,12,13,14,15,16,17-tetradecahydro-1H-cyclopenta[a]phenanthren-17-yl)pentanoyl)piperidin-4-yl)-N-methylisonicotinamide] registered a half-inhibitory concentration (IC50) against SREBP-2 below 250 nM. For the same compound, on LXRβ, the EC50 was above 10000 nM.

The compound `CC[C@]1(O)CC[C@@]2(C)C(=CC[C@H]3[C@@H]4CC[C@H]([C@H](C)CCC(=O)N5CCN(C(=O)OC)CC5)[C@@]4(C)CC[C@@H]32)C1` [Example 420, Methyl 4-[(4R)-4-[(1R,3aS,3bS,7S,9aR,9bS,11aR)-7-ethyl-7-hydroxy-9a,11a-dimethyl-1H,2H,3H,3aH,3bH,4H,6H,7H,8H,9H,9aH,9bH,10H,11H,11aH-cyclopenta[a]phenanthren-1-yl]pentanoyl]piperazine-1-carboxylate] yielded an IC50 at SREBP-2 below 250 nM. Besides, at LXRβ, the EC50 was above 10000 nM.

With `C[C@H](CCc1ncccc1CO)[C@H]1CC[C@H]2[C@@H]3CC=C4C[C@@H](O)CC[C@]4(C)[C@H]3CC[C@]12C` [Example 454, (3S,8S,9S,10R,13R,14S,17R)-17-((R)-4-(3-(hydroxymethyl)pyridin-2-yl)butan-2-yl)-10,13-dimethyl-2,3,4,7,8,9,10,11,12,13,14,15,16,17-tetradecahydro-1H-cyclopenta[a]phenanthren-3-ol], the IC50 against SREBP-2 is below 250 nM. Further, at LXRβ, the EC50 is below 250 nM.

In turn, `CC(O)c1cccnc1CC[C@@H](C)[C@H]1CC[C@H]2[C@@H]3CC=C4C[C@@H](O)CC[C@]4(C)[C@H]3CC[C@]12C` (stereo partly drawn) [Example 455, (3S,8S,9S,10R,13R,14S,17R)-17-((2R)-4-(3-(1-hydroxyethyl)pyridin-2-yl)butan-2-yl)-10,13-dimethyl-2,3,4,7,8,9,10,11,12,13,14,15,16,17-tetradecahydro-1H-cyclopenta[a]phenanthren-3-ol] had an IC50 against SREBP-2 below 250 nM. The EC50 on LXRβ was below 250 nM.

Compound `COC(C)C1CCN(C(=O)CC[C@@H](C)[C@H]2CC[C@H]3[C@@H]4CC=C5C[C@@H](O)CC[C@]5(C)[C@H]4CC[C@]23C)CC1` (stereo partly drawn) [Example 469, (4R)-4-((3S,8S,9S,10R,13R,14S,17R)-3-hydroxy-10,13-dimethyl-2,3,4,7,8,9,10,11,12,13,14,15,16,17-tetradecahydro-1H-cyclopenta[a]phenanthren-17-yl)-1-(4-(1-methoxyethyl)piperidin-1-yl)pentan-1-one] registered an IC50 against SREBP-2 below 250 nM. For the same compound, the EC50 at LXRβ lay within 250 to 1000 nM.

`C[C@H](CCC(=O)N1CCN(c2cncn2C)CC1)[C@H]1CC[C@H]2[C@@H]3CC=C4C[C@@H](O)CC[C@]4(C)[C@H]3CC[C@]12C` [Example 481, (4R)-4-[(1R,3aS,3bS,7S,9aR,9bS,11aR)-7-hydroxy-9a,11a-dimethyl-1H,2H,3H,3aH,3bH,4H,6H,7H,8H,9H,9aH,9bH,10H,11H,11aH-cyclopenta[a]phenanthren-1-yl]-1-[4-(1-methyl-1H-imidazol-5-yl)piperazin-1-yl]pentan-1-one] returned a half-inhibitory concentration (IC50) against SREBP-2 below 250 nM. Moreover, the EC50 on LXRβ was above 10000 nM.

Consider `Cc1nnc(N2CCN(C(=O)CC[C@@H](C)[C@H]3CC[C@H]4[C@@H]5CC=C6C[C@@H](O)CC[C@]6(C)[C@H]5CC[C@]34C)CC2)o1` [Example 482, (R)-4-((3S,8S,9S,10R,13R,14S,17R)-3-hydroxy-10,13-dimethyl-2,3,4,7,8,9,10,11,12,13,14,15,16,17-tetradecahydro-1H-cyclopenta[a]phenanthren-17-yl)-1-(4-(5-methyl-1,3,4-oxadiazol-2-yl)piperazin-1-yl)pentan-1-one], for which, at SREBP-2, the concentration for half-maximal inhibition (IC50) is below 250 nM. The EC50 on LXRβ was above 10000 nM.

In the case of `C[C@H](CCC(=O)N1CCN(c2ccnnc2)CC1)[C@H]1CC[C@H]2[C@@H]3CC=C4C[C@@H](O)CC[C@]4(C)[C@H]3CC[C@]12C` [Example 487, (R)-4-((3S,8S,9S,10R,13R,14S,17R)-3-hydroxy-10,13-dimethyl-2,3,4,7,8,9,10,11,12,13,14,15,16,17-tetradecahydro-1H-cyclopenta[a]phenanthren-17-yl)-1-(4-(pyridazin-4-yl)piperazin-1-yl)pentan-1-one], at SREBP-2, the concentration for half-maximal inhibition (IC50) is below 250 nM. Further, the EC50 on LXRβ was above 10000 nM.

As to `Cc1noc(N2CCN(C(=O)CC[C@@H](C)[C@H]3CC[C@H]4[C@@H]5CC=C6C[C@@H](O)CC[C@]6(C)[C@H]5CC[C@]34C)CC2)n1` [Example 495, (R)-4-((3S,8S,9S,10R,13R,14S,17R)-3-hydroxy-10,13-dimethyl-2,3,4,7,8,9,10,11,12,13,14,15,16,17-tetradecahydro-1H-cyclopenta[a]phenanthren-17-yl)-1-(4-(3-methyl-1,2,4-oxadiazol-5-yl)piperazin-1-yl)pentan-1-one], the 50% inhibitory concentration (IC50) at SREBP-2 was below 250 nM. The EC50 on LXRβ is above 10000 nM.

The compound `Cc1cc(N2CCN(C(=O)CC[C@@H](C)[C@H]3CC[C@H]4[C@@H]5CC=C6C[C@@H](O)CC[C@]6(C)[C@H]5CC[C@]34C)CC2)sn1` [Example 497, (R)-4-((3S,8S,9S,10R,13R,14S,17R)-3-hydroxy-10,13-dimethyl-2,3,4,7,8,9,10,11,12,13,14,15,16,17-tetradecahydro-1H-cyclopenta[a]phenanthren-17-yl)-1-(4-(3-methylisothiazol-5-yl)piperazin-1-yl)pentan-1-one] returned a half-inhibitory concentration (IC50) against SREBP-2 below 250 nM. Further, the EC50 at LXRβ was above 10000 nM.

`Cc1cncnc1N1CCN(C(=O)CC[C@@H](C)[C@H]2CC[C@H]3[C@@H]4CC=C5C[C@@H](O)CC[C@]5(C)[C@H]4CC[C@]23C)CC1` [Example 508, (R)-4-((3S,8S,9S,10R,13R,14S,17R)-3-hydroxy-10,13-dimethyl-2,3,4,7,8,9,10,11,12,13,14,15,16,17-tetradecahydro-1H-cyclopenta[a]phenanthren-17-yl)-1-(4-(5-methylpyrimidin-4-yl)piperazin-1-yl)pentan-1-one] gave a concentration for half-maximal inhibition (IC50) against SREBP-2 below 250 nM. Moreover, the EC50 on LXRβ was above 10000 nM.

On to `C[C@H](CCC(=O)N1CCN(C(=O)C2CCCC2)CC1)[C@H]1CC[C@H]2[C@@H]3CC=C4C[C@@H](O)CC[C@]4(C)[C@H]3CC[C@]12C` [Example 515, (R)-1-(4-(cyclopentanecarbonyl)piperazin-1-yl)-4-((3S,8S,9S,10R,13R,14S,17R)-3-hydroxy-10,13-dimethyl-2,3,4,7,8,9,10,11,12,13,14,15,16,17-tetradecahydro-1H-cyclopenta[a]phenanthren-17-yl)pentan-1-one], for which the half-inhibitory concentration (IC50) against SREBP-2 was below 250 nM. Moreover, at LXRβ, the EC50 was above 10000 nM.

`C[C@H](CCC(=O)N1CCN(c2ccn(C3CC3)c2)CC1)[C@H]1CC[C@H]2[C@@H]3CC=C4C[C@@H](O)CC[C@]4(C)[C@H]3CC[C@]12C` [Example 516, (R)-1-(4-(1-cyclopropyl-1H-pyrrol-3-yl)piperazin-1-yl)-4-((3S,8S,9S,10R,13R,14S,17R)-3-hydroxy-10,13-dimethyl-2,3,4,7,8,9,10,11,12,13,14,15,16,17-tetradecahydro-1H-cyclopenta[a]phenanthren-17-yl)pentan-1-one] returned a 50% inhibitory concentration (IC50) against SREBP-2 below 250 nM. Moreover, the EC50 at LXRβ was above 10000 nM.

As for `CCC1(OC)CCCN(C(=O)CC[C@@H](C)[C@H]2CC[C@H]3[C@@H]4CC=C5C[C@@H](O)CC[C@]5(C)[C@H]4CC[C@]23C)C1` (stereo partly drawn) [Example 519, (R)-1-((R)-3-ethyl-3-methoxypiperidin-1-yl)-4-((3S,8S,9S,10R,13R,14S,17R)-3-hydroxy-10,13-dimethyl-2,3,4,7,8,9,10,11,12,13,14,15,16,17-tetradecahydro-1H-cyclopenta[a]phenanthren-17-yl)pentan-1-one], the IC50 on SREBP-2 was below 250 nM. In addition, the EC50 at LXRβ lay within 1000 to 10000 nM.

As for `C[C@H](CCC(=O)N1CCN(C(=O)c2cn(C)cn2)CC1)[C@H]1CC[C@H]2[C@@H]3CC=C4C[C@@H](O)CC[C@]4(C)[C@H]3CC[C@]12C` [Example 538, (4R)-4-[(1R,3aS,3bS,7S,9aR,9bS,11aR)-7-hydroxy-9a,11a-dimethyl-1H,2H,3H,3aH,3bH,4H,6H,7H,8H,9H,9aH,9bH,10H,11H,11aH-cyclopenta[a]phenanthren-1-yl]-1-[4-(1-methyl-1H-imidazole-4-carbonyl)piperazin-1-yl]pentan-1-one], the IC50 at SREBP-2 is below 250 nM. For the same compound, on LXRβ, the EC50 is above 10000 nM.
